According to patent US12071408B2, “Multi-targeted tyrosine kinase inhibitors effective in antitumor uses” (Shanghai AB PharmaTech Ltd., priority 2021, dated 2024):

Experiments:
[1] = test system: thyroid cancer cell line (TT); assay: Tumor cell proliferation inhibition (CTG, 72 h); assay type: cell-based; settings: Homo sapiens; TT cells, class; read-out: TT range of activity (IC50)
[2] = test system: hepatocellular carcinoma cell line (Hep3B 2.1-7); assay: Tumor cell proliferation inhibition (CTG, 72 h); assay type: cell-based; settings: Homo sapiens; Hep3B 2.1-7 cells, class; read-out: Hep3B 2.1-7 range of activity (IC50)
FGFR4 = FGFR4 (Homo sapiens (Human), UniProt P22455); assay: Kinase inhibition, Mobility-Shift Assay; assay type: biochemical; settings: class; read-out: FGFR4 range of activity effects (IC50)
FGFR4, sequence (P22455 22-802): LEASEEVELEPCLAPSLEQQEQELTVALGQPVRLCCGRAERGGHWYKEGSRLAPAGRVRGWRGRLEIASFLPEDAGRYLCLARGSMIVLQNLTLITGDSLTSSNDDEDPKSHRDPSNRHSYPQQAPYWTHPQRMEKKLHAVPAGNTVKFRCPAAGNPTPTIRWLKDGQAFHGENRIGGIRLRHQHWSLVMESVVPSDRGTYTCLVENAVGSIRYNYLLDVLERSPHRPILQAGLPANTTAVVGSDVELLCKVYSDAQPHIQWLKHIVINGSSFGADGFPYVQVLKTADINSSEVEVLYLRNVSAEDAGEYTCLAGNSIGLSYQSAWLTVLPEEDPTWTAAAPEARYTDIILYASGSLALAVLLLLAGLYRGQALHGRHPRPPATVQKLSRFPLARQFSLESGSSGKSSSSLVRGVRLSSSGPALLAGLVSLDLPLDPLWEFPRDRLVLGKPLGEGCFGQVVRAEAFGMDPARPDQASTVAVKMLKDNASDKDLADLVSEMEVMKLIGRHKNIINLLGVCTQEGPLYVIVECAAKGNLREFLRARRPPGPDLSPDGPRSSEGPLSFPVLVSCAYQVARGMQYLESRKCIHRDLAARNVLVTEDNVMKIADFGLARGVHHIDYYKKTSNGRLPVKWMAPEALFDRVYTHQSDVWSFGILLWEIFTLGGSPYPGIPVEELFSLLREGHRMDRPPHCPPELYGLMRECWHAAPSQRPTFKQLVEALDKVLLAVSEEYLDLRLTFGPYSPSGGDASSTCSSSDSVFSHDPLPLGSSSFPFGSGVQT

VEGFR-2 (KDR) = VEGFR-2 (KDR) (Homo sapiens (Human), UniProt P35968); assay: Kinase inhibition, Mobility-Shift Assay; assay type: biochemical; settings: class; read-out: KDR activity effect range (IC50)
[3] = test system: bladder cancer cell line (RT112/84); assay: Tumor cell proliferation inhibition (CTG, 72 h); assay type: cell-based; settings: Homo sapiens; RT112/84 cells, class; read-out: RT112/84 range of activity (IC50)
[4] = test system: leukemia cell line (K562); assay: Tumor cell proliferation inhibition (CTG, 72 h); assay type: cell-based; settings: Homo sapiens; K562 cells, class; read-out: K562 activity effect range (IC50)
FGFR2 = FGFR2 (Homo sapiens (Human), UniProt P21802); assay: Kinase inhibition, Mobility-Shift Assay; assay type: biochemical; settings: class; read-out: FGFR2 range of activity effects (IC50)
FGFR2, sequence (P21802 22-821): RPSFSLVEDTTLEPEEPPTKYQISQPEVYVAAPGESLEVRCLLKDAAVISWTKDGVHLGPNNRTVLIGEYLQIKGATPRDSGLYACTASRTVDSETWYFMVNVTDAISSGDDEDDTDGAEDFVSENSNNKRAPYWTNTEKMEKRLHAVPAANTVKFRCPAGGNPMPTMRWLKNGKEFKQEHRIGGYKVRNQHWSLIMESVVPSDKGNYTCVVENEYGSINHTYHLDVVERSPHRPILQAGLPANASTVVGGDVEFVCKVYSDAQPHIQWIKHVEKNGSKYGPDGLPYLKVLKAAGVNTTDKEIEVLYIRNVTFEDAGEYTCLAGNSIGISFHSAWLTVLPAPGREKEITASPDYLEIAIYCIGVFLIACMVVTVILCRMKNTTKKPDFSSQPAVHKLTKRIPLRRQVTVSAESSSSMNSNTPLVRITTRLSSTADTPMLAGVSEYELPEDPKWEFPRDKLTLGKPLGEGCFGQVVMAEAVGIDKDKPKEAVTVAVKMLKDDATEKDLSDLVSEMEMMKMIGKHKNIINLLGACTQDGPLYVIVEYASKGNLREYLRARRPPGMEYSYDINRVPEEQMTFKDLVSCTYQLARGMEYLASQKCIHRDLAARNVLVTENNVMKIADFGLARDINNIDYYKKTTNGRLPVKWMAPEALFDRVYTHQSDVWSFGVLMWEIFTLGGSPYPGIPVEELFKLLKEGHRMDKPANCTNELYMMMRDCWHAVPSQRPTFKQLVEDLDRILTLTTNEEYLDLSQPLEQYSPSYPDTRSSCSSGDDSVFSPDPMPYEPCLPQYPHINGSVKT

EGFR = EGFR (Homo sapiens (Human), UniProt P00533); assay: Kinase inhibition, Mobility-Shift Assay; assay type: biochemical; settings: class; read-out: EGFR range of activity (IC50)
EGFR, sequence (P00533 25-1210): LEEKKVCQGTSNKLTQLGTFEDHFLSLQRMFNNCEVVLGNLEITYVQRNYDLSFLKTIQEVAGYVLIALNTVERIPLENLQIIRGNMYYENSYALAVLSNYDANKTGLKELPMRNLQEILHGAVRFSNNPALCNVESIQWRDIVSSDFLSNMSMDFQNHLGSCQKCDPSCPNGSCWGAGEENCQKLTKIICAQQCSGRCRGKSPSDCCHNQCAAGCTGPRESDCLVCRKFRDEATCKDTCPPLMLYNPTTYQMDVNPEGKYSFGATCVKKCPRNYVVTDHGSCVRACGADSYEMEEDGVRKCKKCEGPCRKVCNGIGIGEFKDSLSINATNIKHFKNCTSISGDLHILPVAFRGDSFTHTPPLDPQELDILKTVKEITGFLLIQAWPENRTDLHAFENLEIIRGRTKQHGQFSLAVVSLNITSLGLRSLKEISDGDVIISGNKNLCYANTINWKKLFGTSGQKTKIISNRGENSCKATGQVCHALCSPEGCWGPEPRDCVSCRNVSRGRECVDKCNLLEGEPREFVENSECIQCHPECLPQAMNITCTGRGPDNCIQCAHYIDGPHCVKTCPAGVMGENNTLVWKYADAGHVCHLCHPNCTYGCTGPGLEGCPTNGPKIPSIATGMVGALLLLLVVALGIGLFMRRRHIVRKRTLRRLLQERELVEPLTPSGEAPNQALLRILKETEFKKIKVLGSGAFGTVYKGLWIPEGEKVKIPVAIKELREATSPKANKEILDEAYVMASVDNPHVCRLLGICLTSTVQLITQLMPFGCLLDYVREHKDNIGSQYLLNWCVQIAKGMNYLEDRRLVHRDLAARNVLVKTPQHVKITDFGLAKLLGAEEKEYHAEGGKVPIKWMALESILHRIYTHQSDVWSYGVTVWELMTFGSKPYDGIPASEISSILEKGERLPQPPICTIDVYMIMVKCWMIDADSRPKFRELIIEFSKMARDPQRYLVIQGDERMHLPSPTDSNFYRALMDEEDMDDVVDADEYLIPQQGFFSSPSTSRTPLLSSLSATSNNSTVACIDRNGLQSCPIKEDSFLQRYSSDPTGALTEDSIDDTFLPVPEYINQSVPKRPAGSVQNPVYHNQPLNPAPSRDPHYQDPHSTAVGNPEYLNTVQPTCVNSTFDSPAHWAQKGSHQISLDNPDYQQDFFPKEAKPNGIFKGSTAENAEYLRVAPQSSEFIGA

C-MET = C-MET (Homo sapiens (Human), UniProt P08581); assay: Kinase inhibition, Mobility-Shift Assay; assay type: biochemical; settings: class; read-out: C-MET range of activity (IC50)
C-MET, sequence (P08581 25-1390): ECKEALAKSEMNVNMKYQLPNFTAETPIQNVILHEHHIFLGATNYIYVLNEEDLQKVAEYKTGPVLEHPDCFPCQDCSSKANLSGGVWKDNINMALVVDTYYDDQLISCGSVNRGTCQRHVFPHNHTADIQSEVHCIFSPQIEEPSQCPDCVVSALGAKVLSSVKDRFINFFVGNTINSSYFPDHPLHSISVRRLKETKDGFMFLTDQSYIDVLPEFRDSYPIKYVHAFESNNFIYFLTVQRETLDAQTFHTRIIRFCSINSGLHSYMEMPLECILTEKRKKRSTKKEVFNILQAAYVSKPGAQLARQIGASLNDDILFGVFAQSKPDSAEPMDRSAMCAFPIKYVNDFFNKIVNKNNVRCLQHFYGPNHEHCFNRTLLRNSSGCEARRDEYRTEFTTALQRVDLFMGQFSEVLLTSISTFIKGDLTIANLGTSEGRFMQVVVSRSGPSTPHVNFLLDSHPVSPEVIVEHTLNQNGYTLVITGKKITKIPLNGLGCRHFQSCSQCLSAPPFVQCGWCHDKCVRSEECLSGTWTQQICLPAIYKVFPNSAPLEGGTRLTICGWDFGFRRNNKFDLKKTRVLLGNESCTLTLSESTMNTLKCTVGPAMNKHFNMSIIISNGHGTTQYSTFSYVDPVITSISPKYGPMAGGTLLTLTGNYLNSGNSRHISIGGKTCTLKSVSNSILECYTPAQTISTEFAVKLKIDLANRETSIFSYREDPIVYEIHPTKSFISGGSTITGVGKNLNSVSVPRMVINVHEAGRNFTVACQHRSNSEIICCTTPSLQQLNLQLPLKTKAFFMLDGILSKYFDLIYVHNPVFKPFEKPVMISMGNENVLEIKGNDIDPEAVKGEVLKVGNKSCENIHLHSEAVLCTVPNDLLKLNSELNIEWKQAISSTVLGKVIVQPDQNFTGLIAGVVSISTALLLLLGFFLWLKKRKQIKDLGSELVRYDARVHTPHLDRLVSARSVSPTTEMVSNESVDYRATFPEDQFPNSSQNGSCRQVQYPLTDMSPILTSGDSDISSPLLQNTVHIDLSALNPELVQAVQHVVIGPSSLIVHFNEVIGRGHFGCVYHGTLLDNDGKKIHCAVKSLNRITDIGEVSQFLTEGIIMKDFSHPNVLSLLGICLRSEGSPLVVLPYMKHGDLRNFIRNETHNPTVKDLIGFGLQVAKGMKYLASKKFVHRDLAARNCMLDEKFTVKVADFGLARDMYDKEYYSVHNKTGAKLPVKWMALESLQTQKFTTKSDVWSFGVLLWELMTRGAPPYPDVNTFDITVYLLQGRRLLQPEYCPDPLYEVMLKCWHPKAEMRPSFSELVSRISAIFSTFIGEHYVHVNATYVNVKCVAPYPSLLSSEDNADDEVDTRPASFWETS

[5] = test system: cervical cancer cell line (Hela); assay: Tumor cell proliferation inhibition (CTG, 72 h); assay type: cell-based; settings: Homo sapiens; Hela cells, class; read-out: Hela activity effect range (IC50)

IC50 [1] | IC50 [2] | IC50 (FGFR4) | IC50 (VEGFR-2 (KDR)) | IC50 [3] | IC50 [4] | IC50 (FGFR2) | IC50 (EGFR) | IC50 (C-MET) | IC50 [5] | Compound
> 10000 nM | > 5000 nM | > 100 nM | > 10 nM | > 1000 nM | > 10000 nM | > 100 nM | > 100 nM | > 100 nM | > 10000 nM | COc1cc2nccc(Oc3c(F)cc(NC(=O)N[C@@H](C)CO)c(Cl)c3F)c2cc1C(N)=O [III-07]
> 10000 nM | > 5000 nM | > 100 nM | > 10 nM | > 1000 nM | > 10000 nM | > 100 nM | > 100 nM | > 100 nM | > 10000 nM | COc1cc2nccc(Oc3c(F)cc(NC(=O)N[C@H](C)CO)c(Cl)c3F)c2cc1C(N)=O [III-08]
> 10000 nM | > 5000 nM | > 100 nM | > 10 nM | > 1000 nM | > 10000 nM | > 100 nM | > 100 nM | > 100 nM | > 10000 nM | COc1cc2nccc(Oc3c(F)cc(NC(=O)NCC(C)(C)O)c(Cl)c3F)c2cc1C(N)=O [III-12]
> 10000 nM | > 5000 nM | > 100 nM | > 10 nM | > 1000 nM | > 10000 nM | > 100 nM | > 100 nM | > 100 nM | > 10000 nM | COc1cc2nccc(Oc3c(F)cc(NC(=O)NC(CO)CO)c(Cl)c3F)c2cc1C(N)=O [III-13]
> 10000 nM | > 5000 nM | > 100 nM | > 10 nM | > 1000 nM | > 10000 nM | > 100 nM | > 100 nM | > 100 nM | > 10000 nM | COc1cc2nccc(Oc3c(F)cc(NC(=O)NC[C@H](O)CO)c(Cl)c3F)c2cc1C(N)=O [III-14]
> 10000 nM | > 5000 nM | > 100 nM | > 10 nM | > 1000 nM | > 10000 nM | > 100 nM | > 100 nM | > 100 nM | > 10000 nM | COc1cc2nccc(Oc3c(Br)cc(NC(=O)NC4CC4)c(Cl)c3F)c2cc1C(N)=O [III-18]
> 10000 nM | > 5000 nM | > 100 nM | > 10 nM | > 1000 nM | > 10000 nM | > 100 nM | > 100 nM | > 100 nM | > 10000 nM | COc1cc2nccc(Oc3c(Cl)cc(NC(=O)NC4CC4)c(Br)c3F)c2cc1C(N)=O [III-20]
> 10000 nM | > 5000 nM | > 100 nM | > 10 nM | > 1000 nM | > 10000 nM | > 100 nM | > 100 nM | > 100 nM | > 10000 nM | COc1cc2nccc(Oc3c(F)cc(NC(=O)NC4(C)CC4)c(F)c3F)c2cc1C(N)=O [III-21]
> 10000 nM | > 5000 nM | > 100 nM | > 10 nM | > 1000 nM | > 10000 nM | > 100 nM | > 100 nM | > 100 nM | > 10000 nM | COc1cc2nccc(Oc3c(F)cc(NC(=O)NC4(C)CC4)c(Cl)c3F)c2cc1C(N)=O [III-22]

The next lines start with the compound.

Compound | IC50 [1] | IC50 [2] | IC50 (FGFR4) | IC50 (VEGFR-2 (KDR)) | IC50 [3] | IC50 [4] | IC50 (FGFR2) | IC50 (EGFR) | IC50 (C-MET) | IC50 [5]
COc1cc2nccc(Oc3c(F)cc(NC(=O)N(C)C(C)C)c(Cl)c3F)c2cc1C(N)=O [III-02] | > 10000 nM | > 5000 nM | > 100 nM | > 10 nM | > 1000 nM | > 10000 nM | > 100 nM | > 100 nM | > 100 nM | > 10000 nM
CCC(C)NC(=O)Nc1cc(F)c(Oc2ccnc3cc(OC)c(C(N)=O)cc23)c(F)c1Cl (stereo not drawn) [III-03] | > 10000 nM | > 5000 nM | > 100 nM | > 10 nM | > 1000 nM | > 10000 nM | > 100 nM | > 100 nM | > 100 nM | > 10000 nM
COc1cc2nccc(Oc3c(F)cc(NC(=O)NC(C)(C)C)c(Cl)c3F)c2cc1C(N)=O [III-04] | > 10000 nM | > 5000 nM | > 100 nM | > 10 nM | > 1000 nM | > 10000 nM | > 100 nM | > 100 nM | > 100 nM | > 10000 nM
COc1cc2nccc(Oc3c(F)cc(NC(=O)NCC(F)F)c(Cl)c3F)c2cc1C(N)=O [III-05] | > 10000 nM | > 5000 nM | > 100 nM | > 10 nM | > 1000 nM | > 10000 nM | > 100 nM | > 100 nM | > 100 nM | > 10000 nM
COc1cc2nccc(Oc3c(F)cc(NC(=O)NCCO)c(Cl)c3F)c2cc1C(N)=O [III-06] | > 10000 nM | > 5000 nM | > 100 nM | > 10 nM | > 1000 nM | > 10000 nM | > 100 nM | > 100 nM | > 100 nM | > 10000 nM
COc1cc2nccc(Oc3c(F)cc(NC(=O)NC[C@H](C)O)c(Cl)c3F)c2cc1C(N)=O [III-09] | > 10000 nM | > 5000 nM | > 100 nM | > 10 nM | > 1000 nM | > 10000 nM | > 100 nM | > 100 nM | > 100 nM | > 10000 nM
COc1cc2nccc(Oc3c(F)cc(NC(=O)NC[C@@H](C)O)c(Cl)c3F)c2cc1C(N)=O [III-10] | > 10000 nM | > 5000 nM | > 100 nM | > 10 nM | > 1000 nM | > 10000 nM | > 100 nM | > 100 nM | > 100 nM | > 10000 nM
COc1cc2nccc(Oc3c(F)cc(NC(=O)NC(C)(C)CO)c(Cl)c3F)c2cc1C(N)=O [III-11] | > 10000 nM | > 5000 nM | > 100 nM | > 10 nM | > 1000 nM | > 10000 nM | > 100 nM | > 100 nM | > 100 nM | > 10000 nM
COc1cc2nccc(Oc3c(F)cc(NC(=O)NC[C@@H](O)CO)c(Cl)c3F)c2cc1C(N)=O [III-15] | > 10000 nM | > 5000 nM | > 100 nM | > 10 nM | > 1000 nM | > 10000 nM | > 100 nM | > 100 nM | > 100 nM | > 10000 nM
COc1cc2nccc(Oc3c(F)cc(NC(=O)NC4CC4)c(F)c3F)c2cc1C(N)=O [III-16] | > 10000 nM | 2500 to 5000 nM | > 100 nM | 2 to 10 nM | 200 to 1000 nM | 5000 to 10000 nM | 30 to 100 nM | > 100 nM | 60 to 100 nM | > 10000 nM
COc1cc2nccc(Oc3c(F)cc(NC(=O)NC4CC4)c(Br)c3F)c2cc1C(N)=O [III-17] | > 10000 nM | > 5000 nM | > 100 nM | > 10 nM | > 1000 nM | > 10000 nM | > 100 nM | > 100 nM | > 100 nM | > 10000 nM
COc1cc2nccc(Oc3c(Cl)cc(NC(=O)NC4CC4)c(Cl)c3F)c2cc1C(N)=O [III-19] | > 10000 nM | > 5000 nM | > 100 nM | > 10 nM | > 1000 nM | > 10000 nM | > 100 nM | > 100 nM | > 100 nM | > 10000 nM
